# Assay results from patent EP0059645A1, “Method and kit for identification of beta-lactamases” (NATIONAL RESEARCH DEVELOPMENT CORPORATION, priority 1981, dated 1982).
# Marks after values point to notes of the source that are not given here.
# Key:
# OXA-1 [1] = target: T1, OXA-1 (Escherichia coli, UniProt P13661); assay: 6-well visual test with nitrocefin; conditions: 3 minutes, room temperature
# E. cloacae = E. cloacae (Enterobacter cloacae, UniProt P05364); assay: 6-well visual test with nitrocefin; conditions: 3 minutes, room temperature
# OXA-2 [2] = target: T2, OXA-2 (Escherichia coli, UniProt P0A1V9); assay: 6-well visual test with nitrocefin; conditions: 3 minutes, room temperature
# TEM-2 = TEM-2 (Escherichia coli, UniProt P62593, Q37K); assay: 6-well visual test with nitrocefin; conditions: 3 minutes, room temperature
# PSE-2 [3] = target: T3, PSE-2 (Pseudomonas aeruginosa, UniProt P14489); assay: Competitive assay with nitrocefin (RSAI); assay type: biochemical, Ps.aerug. 1973E; parameters: Normally, therefore, the beta-lactamase has to be extracted from the cells for the purpose of the present invention; endogenous in cells
# OXA-2 [4] = target: T2, OXA-2; assay: Competitive assay with nitrocefin (RSAI); assay type: biochemical, E. coli R46; parameters: the beta-lactamase has to be extracted from the cells for the purpose of the present invention; made in house; host or cells: E. coli carrying R46 according to the earlier reading (crude cell extract)
# PSE-1 = PSE-1 (Pseudomonas aeruginosa, UniProt Q03170); assay: 6-well visual test with nitrocefin; conditions: 3 minutes, room temperature
# HMS-1 [5] = assay: Competitive assay with nitrocefin (RSAI); assay type: biochemical, E. coli 1946
# PSE-3 = assay: 6-well visual test with nitrocefin; conditions: 3 minutes, room temperature
# SHV-1 [6] = target: T4, SHV-1 (Escherichia coli, UniProt P0AD63); assay: 6-well visual test with nitrocefin; conditions: 3 minutes, room temperature
# [7] = target: T5, Chromosomal, induced beta-lactamase enzyme (Pseudomonas aeruginosa, UniProt P24735); assay: Competitive assay with nitrocefin (RSAI); assay type: biochemical, Ps.aerug. 1937E + ampicillin
# T5 construct: Normally, therefore, the beta-lactamase has to be extracted from the cells for the purpose of the present invention; endogenous in cells; host or cells: Pseudomonas aeruginosa 1937E grown with ampicillin
# [8] = target: Chromosomal, hyper-induced beta-lactamase enzyme (Escherichia coli, UniProt P00811); assay: Competitive assay with nitrocefin (RSAI); assay type: biochemical, E. coli SNU35; parameters: Normally, therefore, the beta-lactamase has to be extracted from the cells for the purpose of the present invention; endogenous in cells; host or cells: E. coli SNU 35 (artificially produced strain)
# HMS-1 [9] = assay: 6-well visual test with nitrocefin; conditions: 3 minutes, room temperature
# TEM-1 [10] = target: T6, TEM-1 (Escherichia coli, UniProt P62593); assay: 6-well visual test with nitrocefin; conditions: 3 minutes, room temperature
# OXA-3 [11] = target: T7, OXA-3 (Pseudomonas aeruginosa, UniProt Q51429); assay: Competitive assay with nitrocefin (RSAI); assay type: biochemical, E. coli R57B; parameters: Normally, therefore, the beta-lactamase has to be extracted from the cells for the purpose of the present invention; endogenous in cells
# TEM-1 [12] = target: T6, TEM-1; assay: Competitive assay with nitrocefin (RSAI); assay type: biochemical, E. coli 2136E; parameters: the beta-lactamase has to be extracted from the cells for the purpose of the present invention; made in house; host or cells: E. coli 2136E (plasmid-bearing strain; crude cell extract)
# SHV-1 [13] = target: T4, SHV-1; assay: Competitive assay with nitrocefin (RSAI); assay type: biochemical, E. coli 2008E; parameters: the beta-lactamase has to be extracted from the cells for the purpose of the present invention; made in house; host or cells: E. coli 2008E (crude cell extract)
# [14] = target: T8, Chromosomal, constitutive beta-lactamase enzyme (Enterobacter cloacae, UniProt P05364); assay: Competitive assay with nitrocefin (RSAI); assay type: biochemical, E. cloacae
# T8 construct: Normally, therefore, the beta-lactamase has to be extracted from the cells for the purpose of the present invention; endogenous in cells
# PSE-2 [15] = target: T3, PSE-2; assay: 6-well visual test with nitrocefin; conditions: 3 minutes, room temperature
# TEM-2 beta-lactamase = TEM-2 beta-lactamase (Escherichia coli, UniProt P62593, Q37K); assay type: biochemical, E. coli C9 RP4; conditions: from kinetics of nitrocefin cleavage
# [16] = system: "unknown" (unidentified) beta-lactamase; assay: Competitive assay with nitrocefin (RSAI) on an unidentified beta-lactamase; conditions: extract by the method of Example 6, assay as in Example 1; * = showed irreversible inhibition
# OXA-3 [17] = target: T7, OXA-3; assay: 6-well visual test with nitrocefin; conditions: 3 minutes, room temperature
# OXA-1 [18] = target: T1, OXA-1; assay: Competitive assay with nitrocefin (RSAI); assay type: biochemical, E. coli 1527E; parameters: the beta-lactamase has to be extracted from the cells for the purpose of the present invention; made in house; host or cells: E. coli 1527E according to the earlier reading (crude cell extract)
# [19] = well A: Cefoxitin 20:1 to nitrocefin
# [20] = well E: Cefoxitin 200:1 to nitrocefin
smiles,measurement,setting,value
"CO[C@@]1(NC(=O)Cc2cccs2)C(=O)N2C(C(=O)O)=C(COC(N)=O)CS[C@@H]21 [Cefoxi-tin, cefoxitin]",Score in 6-well visual test,OXA-1 [1]; [19],++
same,Score in 6-well visual test,OXA-1 [1]; [20],-
same,Score in 6-well visual test,E. cloacae; [19],-
same,Score in 6-well visual test,E. cloacae; [20],-
same,Score in 6-well visual test,OXA-2 [2]; [19],-
same,Score in 6-well visual test,OXA-2 [2]; [20],-
same,Score in 6-well visual test,TEM-2; [19],++
same,Score in 6-well visual test,TEM-2; [20],-
same,RSAI,PSE-2 [3],24
same,RSAI,OXA-2 [4],0.2
same,Score in 6-well visual test,PSE-1; [19],++
same,Score in 6-well visual test,PSE-1; [20],-
same,RSAI,HMS-1 [5],60
same,Score in 6-well visual test,PSE-3; [19],+
same,Score in 6-well visual test,PSE-3; [20],-
same,Score in 6-well visual test,SHV-1 [6]; [19],++
same,Score in 6-well visual test,SHV-1 [6]; [20],+
same,RSAI,[7],0.003
same,RSAI,[8],0.0008
same,Score in 6-well visual test,HMS-1 [9]; [19],++
same,Score in 6-well visual test,HMS-1 [9]; [20],-
same,Score in 6-well visual test,TEM-1 [10]; [19],++
same,Score in 6-well visual test,TEM-1 [10]; [20],-
same,RSAI,OXA-3 [11],0.004
same,RSAI,TEM-1 [12],60*
same,RSAI,SHV-1 [13],600
same,RSAI,[14],0.01
same,Score in 6-well visual test,PSE-2 [15]; [19],+
same,Score in 6-well visual test,PSE-2 [15]; [20],-
same,nature of the binding to the enzyme,TEM-2 beta-lactamase,irreversible binding
same,RSAI,[16],0.008
same,Score in 6-well visual test,OXA-3 [17]; [19],-
same,Score in 6-well visual test,OXA-3 [17]; [20],-
same,RSAI,OXA-1 [18],20
